19 compounds from ChEMBL document CHEMBL4364336, “Synthesis and exploration of 2-morpholino-4-phenylthiazol-5-yl acrylamide derivatives for their effects against carbonic anhydrase I, II, IX and XII isoforms as a non-sulfonamide class of inhibitors” (Bioorg Med Chem, 2019) can be followed below.

SMILES strings stand for the structures.

The target in one experiment is Carbonic anhydrase 2 (Homo sapiens, UniProt P00918). Put plainly: Inhibition of recombinant human carbonic anhydrase2 preincubated for 10 mins followed by CO2 solution addition by phenol red dye based stopped flow CO2 hydration assay.
The target of the next experiment is Carbonic anhydrase 1 (Homo sapiens, UniProt P00915). The experiment in a line: Inhibition of recombinant human carbonic anhydrase1 preincubated for 10 mins followed by CO2 solution addition by phenol red dye based stopped flow CO2 hydration assay.
Sequence of Carbonic anhydrase 1 (P00915 whole entry): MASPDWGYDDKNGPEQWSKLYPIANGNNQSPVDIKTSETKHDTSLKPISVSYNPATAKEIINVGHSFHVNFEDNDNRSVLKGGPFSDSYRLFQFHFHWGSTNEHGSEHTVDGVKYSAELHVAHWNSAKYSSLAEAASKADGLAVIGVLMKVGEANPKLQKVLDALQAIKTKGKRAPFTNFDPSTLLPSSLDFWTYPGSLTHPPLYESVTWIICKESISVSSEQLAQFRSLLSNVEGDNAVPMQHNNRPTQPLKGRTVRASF
A further experiment addresses Carbonic anhydrase 9 (Homo sapiens, UniProt Q16790). Put plainly: Inhibition of recombinant human carbonic anhydrase9 preincubated for 10 mins followed by CO2 solution addition by phenol red dye based stopped flow CO2 hydration assay.
The target of a further experiment is Carbonic anhydrase 12 (Homo sapiens, UniProt O43570). The experiment in a line: Inhibition of recombinant human carbonic anhydrase12 preincubated for 10 mins followed by CO2 solution addition by phenol red dye based stopped flow CO2 hydration assay.
Sequence of Carbonic anhydrase 12 (O43570 whole entry): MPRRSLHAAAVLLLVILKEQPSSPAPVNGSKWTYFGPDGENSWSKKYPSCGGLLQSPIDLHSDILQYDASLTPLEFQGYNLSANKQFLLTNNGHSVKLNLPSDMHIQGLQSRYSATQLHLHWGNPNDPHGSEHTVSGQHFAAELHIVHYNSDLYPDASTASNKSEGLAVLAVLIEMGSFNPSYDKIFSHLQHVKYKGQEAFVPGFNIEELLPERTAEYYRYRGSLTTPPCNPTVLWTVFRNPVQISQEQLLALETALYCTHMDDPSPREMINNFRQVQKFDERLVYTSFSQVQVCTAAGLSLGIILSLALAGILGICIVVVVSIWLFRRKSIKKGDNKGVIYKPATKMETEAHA

Take `COc1cc(NC(=O)/C=C/c2sc(N3CCOCC3)nc2-c2ccccc2)cc(OC)c1OC`: the Ki on Carbonic anhydrase 2, at Carbonic anhydrase 1, on Carbonic anhydrase 9 and at Carbonic anhydrase 12 was over 100 µM throughout.

As for `COc1ccc(NC(=O)/C=C/c2sc(N3CCOCC3)nc2-c2ccc(OC)cc2)cc1`, the Ki at Carbonic anhydrase 2, on Carbonic anhydrase 1, at Carbonic anhydrase 9 and at Carbonic anhydrase 12 was over 100 µM in each case.

Turning to `COc1ccc(-c2nc(N3CCOCC3)sc2/C=C/C(=O)Nc2ccccc2N)cc1`, the Ki at Carbonic anhydrase 2, at Carbonic anhydrase 1, on Carbonic anhydrase 9 and at Carbonic anhydrase 12 was over 100 µM throughout.

`O=C(/C=C/c1sc(N2CCOCC2)nc1-c1ccccc1)Nc1ccc(Br)cc1`: the Ki on Carbonic anhydrase 2, at Carbonic anhydrase 1, at Carbonic anhydrase 9 and at Carbonic anhydrase 12 was over 100 µM each time.

Regarding `Nc1ccccc1NC(=O)/C=C/c1sc(N2CCOCC2)nc1-c1ccc(Cl)cc1`, the Ki at Carbonic anhydrase 2, on Carbonic anhydrase 1, at Carbonic anhydrase 9 and at Carbonic anhydrase 12 was over 100 µM in each case.

With `COc1ccc(NC(=O)/C=C/c2sc(N3CCOCC3)nc2-c2ccc([N+](=O)[O-])cc2)cc1OC`, the Ki at Carbonic anhydrase 2, on Carbonic anhydrase 1, at Carbonic anhydrase 9 and on Carbonic anhydrase 12 was over 100 µM each time.

Regarding `O=C(/C=C/c1sc(N2CCOCC2)nc1-c1ccc([N+](=O)[O-])cc1)Nc1ccc(Br)cc1`, the inhibition constant Ki (as a rule, the equilibrium dissociation constant of an inhibitor or competing ligand from its target) was 9.3 µM at Carbonic anhydrase 2, over 100 µM at Carbonic anhydrase 1, 54.7 µM at Carbonic anhydrase 9 and 8.8 µM on Carbonic anhydrase 12.

With `Nc1ccccc1NC(=O)/C=C/c1sc(N2CCOCC2)nc1-c1ccc([N+](=O)[O-])cc1`, the inhibitory constant (Ki) was 77.7 µM on Carbonic anhydrase 2, over 100 µM on Carbonic anhydrase 1, 96.7 µM on Carbonic anhydrase 9 and over 100 µM on Carbonic anhydrase 12.

Consider `COc1ccc(NC(=O)/C=C/c2sc(N3CCOCC3)nc2-c2ccc(Cl)cc2)cc1`, for which the Ki at Carbonic anhydrase 2 is 50.4 µM; at Carbonic anhydrase 1, over 100 µM; at Carbonic anhydrase 9, 94.9 µM; on Carbonic anhydrase 12, 7.5 µM.

Regarding `Nc1ccccc1NC(=O)/C=C/c1sc(N2CCOCC2)nc1-c1ccccc1`, the inhibition constant (Ki) at Carbonic anhydrase 2, on Carbonic anhydrase 1, at Carbonic anhydrase 9 and at Carbonic anhydrase 12 was over 100 µM throughout.

For the compound `COc1ccc(-c2nc(N3CCOCC3)sc2/C=C/C(=O)Nc2cc(OC)c(OC)c(OC)c2)cc1`, the Ki on Carbonic anhydrase 2, at Carbonic anhydrase 1, on Carbonic anhydrase 9 and at Carbonic anhydrase 12 was over 100 µM each time.

`COc1ccc(NC(=O)/C=C/c2sc(N3CCOCC3)nc2-c2ccc([N+](=O)[O-])cc2)cc1`: the inhibition constant (Ki) is 39.2 µM at Carbonic anhydrase 2, over 100 µM on Carbonic anhydrase 1, 54.7 µM at Carbonic anhydrase 9 and 4.6 µM at Carbonic anhydrase 12.

In the case of `COc1ccc(NC(=O)/C=C/c2sc(N3CCOCC3)nc2-c2ccc(Cl)cc2)cc1OC`, the inhibitory constant (Ki) at Carbonic anhydrase 2, on Carbonic anhydrase 1, at Carbonic anhydrase 9 and on Carbonic anhydrase 12 was over 100 µM throughout.

Regarding `COc1ccc(-c2nc(N3CCOCC3)sc2/C=C/C(=O)Nc2ccc(OC)c(OC)c2)cc1`, the inhibition constant (Ki) on Carbonic anhydrase 2, on Carbonic anhydrase 1, on Carbonic anhydrase 9 and on Carbonic anhydrase 12 was over 100 µM each time.

As to `O=C(/C=C/c1sc(N2CCOCC2)nc1-c1ccc(Cl)cc1)Nc1ccc(Br)cc1`, the Ki on Carbonic anhydrase 2 is 67.8 µM; on Carbonic anhydrase 1, over 100 µM; at Carbonic anhydrase 9 it was 96.5 µM; on Carbonic anhydrase 12, over 100 µM.

As to `COc1ccc(-c2nc(N3CCOCC3)sc2/C=C/C(=O)Nc2ccc(Br)cc2)cc1`, the Ki at Carbonic anhydrase 2, on Carbonic anhydrase 1, on Carbonic anhydrase 9 and at Carbonic anhydrase 12 was over 100 µM each time.

For the compound `COc1ccc(NC(=O)/C=C/c2sc(N3CCOCC3)nc2-c2ccccc2)cc1OC`, the Ki at Carbonic anhydrase 2, on Carbonic anhydrase 1, on Carbonic anhydrase 9 and on Carbonic anhydrase 12 was over 100 µM each time.

`COc1cc(NC(=O)/C=C/c2sc(N3CCOCC3)nc2-c2ccc(Cl)cc2)cc(OC)c1OC`: the Ki on Carbonic anhydrase 2, on Carbonic anhydrase 1, on Carbonic anhydrase 9 and on Carbonic anhydrase 12 was over 100 µM in each case.

For `COc1ccc(NC(=O)/C=C/c2sc(N3CCOCC3)nc2-c2ccccc2)cc1`, the Ki on Carbonic anhydrase 2, on Carbonic anhydrase 1, at Carbonic anhydrase 9 and on Carbonic anhydrase 12 was over 100 µM each time.
